Data from patent publication US11890317B2, “Cell-protecting composition containing cyclo histidine-proline as active ingredient” (NovMetaPharma Co., Ltd., priority 2016, dated 2024).

Columns and labels:
[1] = system: liver cells (Chang liver cells); assay: Inhibition of acetaminophen (APAP)-induced apoptosis of liver cells, cell viability by cell counting kit-8; format: cell-based
Procedure: Specifically, the acetaminophen was purchased from Sigma Chemical Co. (St. Louis, Mo., USA). The liver cells (Chang liver cells) were purchased from the American Type Culture Collection (ATCC; Manassas, VA, USA). The present inventors simultaneously treated and cultured the liver cell (Chang liver cell) with CHP 0.1, 1, 5 or 10 mg/mL respectively together with APAP 15 mM for 24 hours (FIG. 2A).
Further, the present inventors pre-treated and pre-cultured the liver cell (Chang liver cell) with CHP 0.1, 1, 5 or 10 mg/mL for 24 hours and subsequently post-treated and post-cultured the liver cell (Chang liver cell) with APAP 15 mM for 24 hours (FIG. 2B). The cell viability was analyzed using cell counting kit-8 (Dojindo Laboratories; Kumamoto, Japan). Subsequently, the cell viability was measured with a microplate reader (Molecular Devices, LLC; Sunnyvale, CA, USA).

[2] = system: kidney cells (LLC-PK1 cells); assay: Inhibition of gentamicin (GM)-induced apoptosis of kidney cells, cell viability by cell counting kit-8; format: cell-based
Procedure: Specifically, the cyclo histidine-proline (CHP) was produced by requesting only a target spec (99% purity) from a peptide manufacturer (Bachem; Bubendorf, Switzerland). The gentamycin was purchased from Sigma Chemical Co. (St. Louis, Mo., USA). The kidney cells (LLC-PK1 cells) were purchased from the American Type Culture Collection (ATCC; Manassas, VA, USA). The present inventors simultaneously treated and cultured the kidney cell (LLC-PK1 cell) with CHP 0.1, 1, 5 or 10 mg/mL respectively together with GM 5 mg/mL for 6 hours (FIG. 1A).
Further, the present inventors pre-treated and pre-cultured the kidney cell (LLC-PK1 cell) with CHP 0.1, 1, 5 or 10 mg/mL for 2 hours and subsequently post-treated and post-cultured the kidney cell (LLC-PK1 cell) with GM 5 mg/mL for 4 hours (FIG. 1B). The cell viability was analyzed using cell counting kit-8 (Dojindo Laboratories; Kumamoto, Japan). Subsequently, the cell viability was measured with a microplate reader (Molecular Devices, LLC; Sunnyvale, CA, USA).

SD mice = assay: Liver function protection against cisplatin liver toxicity in mice, serum ALT and AST; format: in vivo; settings: CHP 1, 5 or 10 mg/L in drinking water for 1 week, then cisplatin 7.5 mg/kg i.p., serum after 24 hours
Procedure: To determine the protective effect of CHP on liver toxicity in mice, the present inventors purchased SD mice from Koatech, and the mice were raised under constant conditions (temperature: 23±3° C., relative humidity: 55±10%, daily cycle: 12 hours). Five mice were grouped into one group. We fed water and food to mice in the cage. We adapted the mice for experiments for one week prior to the experiment. After the adaption period, the mice were grouped into five groups.
1 group ingested water and was set as a negative control. […] These 3, 4 and 5 groups were set as liver damage prevention effect groups. The CHP ingestion using drinking water was performed once every two days.
To measure ALT and AST, we collected blood from the abdominal aorta from a mouse. We separated only serum from the blood using a centrifugal separator and analyzed the serum using an automatic analyzer (Hitachi 7180; Tokyo, Japan).
We conducted individual comparisons using the […] post-test thereon.

ICR mice [3] = assay: Kidney function protection against cisplatin kidney toxicity in mice, serum creatinine; format: in vivo; settings: CHP 1 mg/kg orally daily for 1 week, then cisplatin 10 mg/kg i.p., serum after 72 hours, FIG. 5
Description: (§1) Five mice were grouped into one group. We fed water and food to mice in the cage. We adapted the mice for experiments for one week prior to the experiment.

ICR mice [4] = assay: Kidney function protection against cisplatin kidney toxicity in mice, serum BUN; format: in vivo; settings: CHP 1 mg/kg orally daily for 1 week, then cisplatin i.p., serum after 24 hours, FIG. 6
Description: as §1

Molecule: CC(=O)Nc1ccc(O)cc1 [APAP, acetaminophen, reference compound]
- apoptosis of liver cells caused by the drug ([1]; APAP 15 mM): induced apoptosis of liver cells

Molecule: O=C1N[C@@H](Cc2c[nH]cn2)C(=O)N2CCC[C@@H]12 [CHP, cyclo histidine-proline]
- inhibition of gentamicin (GM)-induced apoptosis, kidney cells pre-treated with CHP ([2]; CHP 0.1, 1, 5 or 10 mg/mL pre-treatment 2 hours, then GM 5 mg/mL 4 hours, FIG. 1B): greatly inhibited
- inhibition of apoptosis of kidney cells induced by gentamicin (GM) ([2]; CHP 0.1, 1, 5 or 10 mg/mL, GM 5 mg/mL, FIG. 1A and 1B): inhibited the apoptosis of kidney cells induced by the gentamicin (GM) in a concentration-dependent manner
- inhibition of acetaminophen (APAP)-induced apoptosis, liver cells co-treated with APAP and CHP ([1]; CHP 0.1, 1, 5 or 10 mg/mL together with APAP 15 mM for 24 hours, FIG. 2A): significantly inhibited
- inhibition of apoptosis of liver cells induced by acetaminophen (APAP) ([1]; CHP 0.1, 1, 5 or 10 mg/mL, APAP 15 mM, FIG. 2A and 2B): inhibited the apoptosis of liver cells induced by the acetaminophen (APAP) in a concentration-dependent manner
- cisplatin-induced ALT (SD mice; FIG. 3): significantly reduced
- cisplatin-induced AST (SD mice; FIG. 4): significantly reduced
- cisplatin-induced creatinine (ICR mice [3]): significantly reduced
- cisplatin-induced BUN (ICR mice [4]): significantly reduced

Molecule: gentamicin [GM, reference compound]
- apoptosis of kidney cells caused by the drug ([2]; GM 5 mg/mL): induced apoptosis of kidney cells
